In patent publication US20120264685A1 (priority 2009, published 2012):
Where a SMILES comes first, the peptide text is derived from it. Where no end group is shown, it is not given here. [ ]: non-standard residue; d: D form. ξ: configuration not given here. ξαMeBip(2'-Et,4'-OMe) = CCc1cc(OC)ccc1-c1ccc(CC(C)(N)C(=O)O)cc1; Bip(2'-Et-4'-OMe) = CCc1cc(OC)ccc1-c1ccc(C[C@H](N)C(=O)O)cc1; ξαMePhe(2,6-F2) = CC(N)(Cc1c(F)cccc1F)C(=O)O; αMePhe(2-F) = C[C@](N)(Cc1ccccc1F)C(=O)O; ξαMe(hhPhe) = CC(N)(CCCc1ccccc1)C(=O)O; αMeD = C[C@](N)(CC(=O)O)C(=O)O; ξhhPhe = NC(CCCc1ccccc1)C(=O)O; ξαMeD = CC(N)(CC(=O)O)C(=O)O; αMeAPPA = not defined here; αMeS = C[C@](N)(CO)C(=O)O; ξαMeS = CC(N)(CO)C(=O)O; Aib = CC(C)(N)C(=O)O

How the values were obtained:
[1] = system: RIN5F (Rat Insulinoma) cells; assay: In vitro glucose-dependent insulin secretion (RIN5F cell assay); format: cell-based; details: 16.7-mM glucose load, n = 3, mean ± S.D.
How it was run: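 Rat RIN5F cells were preincubated 40 min in Krebs-Ringer buffer with 1.1 mM glucose and 0.5% BSA, pH 7.4, then exposed to test peptidomimetics for 30 min at 37 °C with 16.7 mM or 0 mM glucose. Supernatant insulin was measured by rat insulin ELISA and normalised to total protein (BCA), as pg/μg.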

[2] = target: DPP IV enzyme (Homo sapiens, UniProt P27487); assay: Stability against DPP IV enzyme; format: in vitro ADME; details: 2 μM, 37° C.; for half-life: read-out: half-life (t1/2) with DPP-IV enzyme
Sequence of DPP IV enzyme (P27487 whole entry, species assumed): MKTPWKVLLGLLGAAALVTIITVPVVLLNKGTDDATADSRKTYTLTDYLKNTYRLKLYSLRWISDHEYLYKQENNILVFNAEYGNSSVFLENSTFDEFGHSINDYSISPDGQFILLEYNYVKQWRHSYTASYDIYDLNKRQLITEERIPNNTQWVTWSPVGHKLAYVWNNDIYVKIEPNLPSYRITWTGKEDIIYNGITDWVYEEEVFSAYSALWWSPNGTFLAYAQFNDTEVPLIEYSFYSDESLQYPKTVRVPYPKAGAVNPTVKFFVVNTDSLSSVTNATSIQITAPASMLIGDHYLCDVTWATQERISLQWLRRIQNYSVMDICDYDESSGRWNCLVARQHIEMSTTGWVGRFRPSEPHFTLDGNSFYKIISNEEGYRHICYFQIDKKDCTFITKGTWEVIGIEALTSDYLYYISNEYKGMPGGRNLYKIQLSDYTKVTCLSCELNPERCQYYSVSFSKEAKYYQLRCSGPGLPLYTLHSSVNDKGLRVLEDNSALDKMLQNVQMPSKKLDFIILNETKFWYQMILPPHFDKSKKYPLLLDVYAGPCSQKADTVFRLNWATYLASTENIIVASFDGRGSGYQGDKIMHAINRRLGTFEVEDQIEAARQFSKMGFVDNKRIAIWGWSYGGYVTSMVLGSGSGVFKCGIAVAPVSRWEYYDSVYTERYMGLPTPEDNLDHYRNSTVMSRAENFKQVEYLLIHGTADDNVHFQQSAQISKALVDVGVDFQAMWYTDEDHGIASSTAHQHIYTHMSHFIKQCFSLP

[3] = Stability in human plasma; format: in vitro ADME; details: 2 μM, 37° C.; for half-life: human, plasma, read-out: half-life (t1/2) in human plasma
[4] = Stability in simulated gastric fluid; format: in vitro ADME; details: 2 μM, 37° C.; for % degradation in 24 h when incubated with simulated gastric fluid: pH 1.5, 24 h
Experimental: (§1) Reactions were terminated by the addition of TFA/H2O ([…], 10% (v/v)). […] The column was equilibrated with TFA/H20, at a flow rate of 1 mL/min. […] The absorbance was monitored at 206 nm using UV detector and peaks were collected manually prior to ESI-MS analysis.

[5] = Stability in simulated intestinal fluid; format: in vitro ADME; details: 2 μM, 37° C.; for % degradation in 24 h when incubated with simulated intestinal fluid: pH 7.5, 24 h
Experimental: as §1

[6] = Stability in liver microsomes; format: in vitro ADME, human; details: 2 μM, 37° C.; for half-life: human, microsomes, read-out: half-life (t1/2) in liver microsomes
Experimental: as §1

[7] = target: human GLP-1 receptor (human, UniProt P43220 24-463); assay: cell-based or functional assay

% degradation in 24 h when incubated with DPP-IV enzyme [2] [%] | half-life [2] [h] | % degradation in 24 h when incubated with human plasma [3] [%] | half-life [3] [h] | half-life (t1/2) in simulated gastric fluid ([4]; pH 1.5) | % degradation in 24 h when incubated with simulated gastric fluid [4] [%] | half-life (t1/2) in simulated intestinal fluid ([5]; pH 7.5) | % degradation in 24 h when incubated with simulated intestinal fluid [5] [%] | % degradation in 24 h when incubated with liver microsomes [6] [%] | half-life [6] [h] | half-life ([4]; simulated gi fluid, pH 1.5, read-out: half-life (t1/2) in simulated gastric fluid) [h] | half-life ([5]; simulated gi fluid, pH 7.5, read-out: half-life (t1/2) in simulated intestinal fluid) [h] | EC50, in-vitro human GLP-1 receptor agonistic activity (cAMP) [7] [nM] | Molecule | Insulin secretion ([1]; 0.1 nM test compd.) [pg/µg/h] | Insulin secretion ([1]; 1 nM test compd.) [pg/µg/h] | Insulin secretion ([1]; 10 nM test compd.) [pg/µg/h]
74 | 9 | 75 | 8 | (8) h | 12 | (6) h | 46 | 83 | 1 | – | – | – | CCc1cc(OC)ccc1-c1ccc(CC(C)(NC(=O)C(C)(CC(=O)O)NC(=O)[C@H](CO)NC(=O)[C@@H](NC(=O)C(C)(Cc2c(F)cccc2F)NC(=O)[C@@H](NC(=O)CNC(=O)[C@H](CCC(N)=O)NC(=O)C(C)(C)NC(=O)[C@H](Cc2c[nH]cn2)NC(=O)[C@@H](N)C(C)C)[C@@H](C)O)[C@@H](C)O)C(=O)NC(CCCc2ccccc2)C(N)=O)cc1 (stereo partly drawn) [compound 75] (H-VH[Aib]QGT[ξαMePhe(2,6-F2)]TS[ξαMeD][ξαMeBip(2'-Et,4'-OMe)][ξhhPhe]-NH2) | 16.4 ± 0.12 | 22.7 ± 0.17 | 36.6 ± 0.05
00 | > 24 | 00 | > 24 | – | 43 | – | 00 | 84 | 2 | 4 | > 24 | – | CCc1cc(OC)ccc1-c1ccc(CC(C)(NC(=O)[C@H](CC(=O)O)NC(=O)C(C)(CO)NC(=O)[C@@H](NC(=O)C(C)(Cc2c(F)cccc2F)NC(=O)[C@@H](NC(=O)CNC(=O)[C@H](CCC(=O)O)NC(=O)[C@H](C)NC(=O)[C@H](Cc2c[nH]cn2)NC(=O)[C@@H](N)C(C)C)[C@@H](C)O)[C@@H](C)O)C(=O)NC(C)(CCCc2ccccc2)C(N)=O)cc1 (stereo partly drawn) [compound 178] (H-VHAEGT[ξαMePhe(2,6-F2)]T[ξαMeS]D[ξαMeBip(2'-Et,4'-OMe)][ξαMe(hhPhe)]-NH2) | 17.1 ± 0.11 | 23.1 ± 0.16 | 37.0 ± 0.29
– | – | – | – | – | – | – | – | – | – | – | – | 8 | VH[Aib]EGT[αMePhe(2-F)]T[αMeS][αMeD][Bip(2'-Et-4'-OMe)][αMeAPPA] (not fully specified (C-terminus); reading uncertain) [Seq. ID. No. 121] | – | – | –
